Tests used:
[1] = molecular target: T1, Muscarinic acetylcholine receptor M2 (Homo sapiens, UniProt P08172); assay: Agonist activity at human muscarinic M2 receptor expressed in CHO cells
T1 sequence (P08172 whole entry): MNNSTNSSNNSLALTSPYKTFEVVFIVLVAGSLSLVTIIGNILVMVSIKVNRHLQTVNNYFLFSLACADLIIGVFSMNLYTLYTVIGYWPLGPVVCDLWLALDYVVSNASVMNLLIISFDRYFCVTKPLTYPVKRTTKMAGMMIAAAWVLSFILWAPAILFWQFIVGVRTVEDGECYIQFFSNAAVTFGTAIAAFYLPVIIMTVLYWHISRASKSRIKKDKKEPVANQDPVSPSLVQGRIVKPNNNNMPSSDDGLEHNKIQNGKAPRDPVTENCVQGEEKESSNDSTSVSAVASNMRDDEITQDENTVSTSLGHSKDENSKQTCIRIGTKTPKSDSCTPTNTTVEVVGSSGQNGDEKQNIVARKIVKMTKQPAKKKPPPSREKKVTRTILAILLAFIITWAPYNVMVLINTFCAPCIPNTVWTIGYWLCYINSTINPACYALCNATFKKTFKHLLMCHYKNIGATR

[2] = molecular target: T2, Muscarinic acetylcholine receptor M5 (Homo sapiens, UniProt P08912); assay: Agonist activity at human muscarinic M5 receptor expressed in CHO cells
T2 sequence (P08912 whole entry): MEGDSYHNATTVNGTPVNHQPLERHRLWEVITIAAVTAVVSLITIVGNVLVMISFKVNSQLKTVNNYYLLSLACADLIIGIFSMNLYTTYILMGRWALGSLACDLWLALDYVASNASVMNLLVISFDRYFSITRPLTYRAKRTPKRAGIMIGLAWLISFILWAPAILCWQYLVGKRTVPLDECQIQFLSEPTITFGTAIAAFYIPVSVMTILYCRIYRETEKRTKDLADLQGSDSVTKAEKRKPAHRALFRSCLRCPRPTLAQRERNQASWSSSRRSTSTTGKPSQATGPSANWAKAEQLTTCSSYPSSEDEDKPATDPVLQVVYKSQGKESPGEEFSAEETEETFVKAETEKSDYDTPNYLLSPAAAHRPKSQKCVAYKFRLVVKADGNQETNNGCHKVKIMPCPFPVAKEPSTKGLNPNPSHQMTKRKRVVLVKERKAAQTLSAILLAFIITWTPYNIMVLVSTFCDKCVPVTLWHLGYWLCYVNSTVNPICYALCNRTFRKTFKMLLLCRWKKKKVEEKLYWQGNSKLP

Compound | EC50 [1] | EC50 [2]
C[C@@H]1COC[C@H](C[N+](C)(C)C)O1 | 15.4 µM | –
C[C@H]1COC[C@@H](C[N+](C)(C)C)O1 | 37.1 µM | 3.71 µM
CC1COCC(C[N+](C)(C)C)O1 (centres undefined) | – | 7.94 µM
